Laboratory results published in patent US9309222B2, “Phenyl linked quinolinyl modulators of RORγt” (Janssen Pharmaceutica NV, priority 2012, dated 2016).
Where “and” joins values, the source holds several entries; their conditions need not be identical. Equal values may be shown once. Where a name gives a salt, the structure may show the parent alone.

Legend:
[1] = target: T1, human RORγt ligand binding domain (RORγt LBD) (Homo sapiens, UniProt P51449); test: RORγt ThermoFluor assay (thermal shift, ligand binding affinity); details: estimated from concentration response of thermal shift
T1 construct: His-tag (N); TurboTEV protease cleavage site (ENLYFQG) (N); made in house; host or cells: E. coli (pHIS1, modified pET vector)
T1 sequence (P51449 with tags, fused parts or gaps): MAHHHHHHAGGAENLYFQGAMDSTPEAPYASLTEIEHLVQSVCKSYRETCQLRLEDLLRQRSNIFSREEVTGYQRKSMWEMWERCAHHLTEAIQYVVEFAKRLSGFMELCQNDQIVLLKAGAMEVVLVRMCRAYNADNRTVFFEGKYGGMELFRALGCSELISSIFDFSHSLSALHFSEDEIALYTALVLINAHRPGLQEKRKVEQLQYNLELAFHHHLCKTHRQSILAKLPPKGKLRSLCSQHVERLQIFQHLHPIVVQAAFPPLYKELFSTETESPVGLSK
Procedure, shortened: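 Thermal shift of 0.065 mg/mL RORγt with 60 μM 1,8-ANS in 100 mM Hepes pH 7.0, 10 mM NaCl, 2.5 mM GSH, 0.002% Tween-20. Compounds in 1:2 series from 10 mM DMSO stock. Dye fluorescence (500 nm emission) tracked versus temperature; ΔTm used to derive KD.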

[2] = target: T2, human RORγt LBD (Homo sapiens, UniProt P51449); test: RORγt reporter assay (GAL4-RORγt LBD luciferase in HEK293T cells); format: cell-based; details: for RORγt reporter Assay, % inhibition @ 6 μM / IC50: HEK293T cells; for RORγt reporter Assay, % inhibition @ 6 μM: 6 μM compound; for IC50: 24 hours compound treatment; for inhibition at 6 µM: HEK-293T, read-out: RORγt reporter Assay, % inhibition @ 6 μM, HEK293T cells, 6 μM compound
T2 construct: expressed in transfected cells
T2 sequence (P51449 258-518): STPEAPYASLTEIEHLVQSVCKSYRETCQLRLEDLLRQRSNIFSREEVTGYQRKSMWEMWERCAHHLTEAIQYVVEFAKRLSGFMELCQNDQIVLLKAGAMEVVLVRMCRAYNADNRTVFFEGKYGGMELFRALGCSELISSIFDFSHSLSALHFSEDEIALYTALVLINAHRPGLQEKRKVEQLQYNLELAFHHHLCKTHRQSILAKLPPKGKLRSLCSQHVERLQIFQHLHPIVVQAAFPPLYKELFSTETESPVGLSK
Procedure, shortened: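 HEK293T cells transiently co-transfected with pBIND (GAL4 DBD fused to wild-type human RORγt LBD, plus SV40-driven renilla luciferase) and pGL4.31 GAL4-responsive firefly luciferase reporter. Plated in phenol-red-free DMEM with 5% lipid-reduced FCS and treated with compound for 24 h. Firefly/renilla luminescence ratio plotted against compound concentration.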

[3] = system: IL-17 production by CD4 T cells; test: Human Th17 assay (IL-17 production by CD4 T cells under Th17 differentiation conditions); format: cell-based; details: IL-17 in supernatant after 3 days
Procedure, shortened: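 Primary CD4+ T cells from healthy-donor PBMC, preincubated 1 h with titrated compound (0.2% DMSO), then activated with anti-CD3/CD28 beads plus anti-IL4, anti-IFNγ, IL1β, IL23, IL6, TGFβ and IL2.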

SMILES	Kd [1] [nM]	RORγt reporter Assay, % inhibition @ 6 μM ([2]; 6 µM) [%]	IC50 [2]	IC50 [3] [nM]	IC50 ([3]; Homo sapiens, CD4+ T, 72 h) [nM]	inhibition at 6 µM [2] [%]	RORγt reporter Assay, % inhibition @ 6 μM [2] [%]
OC(c1cccnc1)(c1ccc2nc(Cl)c(-c3ccccc3)c(Cl)c2c1)c1ccccn1 (stereo not drawn) [Example 26, (2,4-Dichloro-3-phenylquinolin-6-yl)(pyridin-2-yl)pyridin-3-ylmethanol•TFA]	1300		700 nM		2800	100	
N#Cc1nc2ccc(C(O)(c3ccc(C(N)=O)nc3)c3cccc(Cl)c3)cc2c(C#N)c1-c1ccccc1 (stereo not drawn) [Example 112, 5-[(3-Chlorophenyl)(2,4-dicyano-3-phenylquinolin-6-yl)hydroxymethyl]pyridine-2-carboxamide•TFA]	120		380 nM		480	100	
CN(C)c1nc2ccc(C(O)(c3cccnc3)c3ccccc3Cl)cc2c(Cl)c1-c1ccccc1 (stereo not drawn) [Example 44, [4-Chloro-2-(dimethylamino)-3-phenylquinolin-6-yl](2-chlorophenyl)pyridin-3-ylmethanol•TFA]	330		170 nM		550	97	
COc1cccc(C(O)(c2ccc(Cl)nc2)c2ccc3nc(Cl)c(-c4ccccc4)c(Cl)c3c2)c1 (stereo not drawn) [Example 65, (6-Chloropyridin-3-yl)(2,4-dichloro-3-phenylquinolin-6-yl)(3-methoxyphenyl)methanol]	200		160 nM		190	103	
O=C(O)C(F)(F)F.OC(c1cccnc1)(c1cccc(Cl)c1)c1ccc2nc(C(F)(F)F)c(-c3ccccc3)c(C(F)(F)F)c2c1 (stereo not drawn) [Example 165, (3-Chlorophenyl)(3-phenyl-2,4-bis(trifluoromethyl)quinolin-6-yl)(pyridin-3-yl)methanol•TFA]	2.4		48 nM	97			98
CCN(CC)c1nc2ccc(C(O)(c3cccnc3)c3cccc(Cl)c3)cc2c(C#N)c1-c1ccccc1 (stereo not drawn) [Example 113, 6-[(3-Chlorophenyl)(hydroxy)pyridin-3-ylmethyl]-2-(diethylamino)-3-phenylquinoline-4-carbonitrile•TFA]	1800		86 nM		250	101	
CCN(CC)c1nc2ccc(C(O)(c3cccnc3)c3cccc(Cl)c3)cc2c(Cl)c1-c1ccccc1 (stereo not drawn) [Example 100, (4-Chloro-2-(diethylamino)-3-phenylquinolin-6-yl)(3-chlorophenyl)pyridin-3-ylmethanol•TFA]	350		160 nM		150	95	
OC(c1cccnc1)(c1cccc(Cl)c1)c1ccc2nc(Cl)c(-c3ccccc3)c(Cl)c2c1 (stereo not drawn) [Example 25, (3-Chlorophenyl)(2,4-dichloro-3-phenylquinolin-6-yl)(pyridin-3-yl)methanol]	65		94 nM and ~90 nM		340	99	
CN(C)c1nc2ccc(C(O)(c3ccc(F)cc3)c3cccnc3)cc2c(Cl)c1-c1ccccc1 (stereo not drawn) [Example 38, [4-Chloro-2-(dimethylamino)-3-phenylquinolin-6-yl](4-fluorophenyl)pyridin-3-ylmethanol•TFA]	37		110 nM and < 50 nM		270	98	

Continued, values first:

Kd [1] [nM]	RORγt reporter Assay, % inhibition @ 6 μM ([2]; 6 µM) [%]	IC50 [2]	IC50 [3] [nM]	IC50 ([3]; Homo sapiens, CD4+ T, 72 h) [nM]	inhibition at 6 µM [2] [%]	RORγt reporter Assay, % inhibition @ 6 μM [2] [%]	SMILES
93	99	170 nM	97				COc1nc2c(C)cc(C(O)(c3ccc(F)cc3)c3cncn3C)cc2c(C#N)c1-c1cccc(F)c1 (single isomer, unassigned) [Example 180c, 3-(3-Fluorophenyl)-6-((4-fluorophenyl)(hydroxy)(1-methyl-1H-imidazol-5-yl)methyl)-2-methoxy-8-methylquinoline-4-carbonitrile]
63	96	480 nM		~1000			COc1nc2c(C)cc(C(O)(c3ccc(C(F)(F)F)nc3)c3cncn3C)cc2c(C#N)c1-c1cccc(F)c1 (single isomer, unassigned) [Example 179c, 3-(3-Fluorophenyl)-6-(hydroxy(1-methyl-1H-imidazol-5-yl)(6-(trifluoromethyl)pyridin-3-yl)methyl)-2-methoxy-8-methylquinoline-4-carbonitrile]
2000		290 nM		1600	98		CN(C)c1nc2ccc(C(O)(c3ccccn3)c3cncn3C)cc2c(Cl)c1-c1ccccc1 (stereo not drawn) [Example 36, [4-Chloro-2-(dimethylamino)-3-phenylquinolin-6-yl](1-methyl-1H-imidazol-5-yl)pyridin-2-ylmethanol•TFA]
39		150 nM		190	101		CCN(CC)c1nc2ccc(C(O)(c3ccncc3)c3cncn3C)cc2c(OC)c1-c1ccccc1 (stereo not drawn) [Example 105, [2-(Diethylamino)-4-methoxy-3-phenylquinolin-6-yl](1-methyl-1H-imidazol-5-yl)pyridin-4-ylmethanol•TFA]
1.2		17 nM		75	93		Cc1cc(C(O)(c2cc(C)c3nc(Cl)c(-c4ccccc4)c(Cl)c3c2)c2cncn2C)ccn1 (stereo not drawn) [Example 159, (2,4-Dichloro-8-methyl-3-phenylquinolin-6-yl)(1-methyl-1H-imidazol-5-yl)(2-methylpyridin-4-yl)methanol•TFA]
22		~100 nM		330	103		Cn1cncc1C(O)(c1ccc(F)nc1)c1ccc2nc(Cl)c(-c3ccccc3)c(Cl)c2c1 (stereo not drawn) [Example 12, (2,4-Dichloro-3-phenylquinolin-6-yl)(6-fluoropyridin-3-yl)(1-methyl-1H-imidazol-5-yl)methanol•TFA]
97		140 nM		240	98		COC(c1ccncc1)(c1ccc2nc(N(C)C)c(-c3ccccc3)c(Cl)c2c1)c1cncn1C (stereo not drawn) [Example 128, 4-Chloro-6-(methoxy(1-methyl-1H-imidazol-5-yl)(pyridin-4-yl)methyl)-N,N-dimethyl-3-phenylquinolin-2-amine•TFA]
36		350 nM		300	98		CCc1nc2ccc(C(O)(c3ccncc3)c3cncn3C)cc2c(N(C)C)c1-c1ccccc1 (stereo not drawn) [Example 98, [4-(Dimethylamino)-2-ethyl-3-phenylquinolin-6-yl](1-methyl-1H-imidazol-5-yl)pyridin-4-ylmethanol•TFA]
64	95	140 nM		110			Cc1cc(C(O)(c2ccc(F)cc2)c2cncn2C)cc2c(C#N)c(-c3cccc(F)c3)c(C#N)nc12 (single isomer, unassigned) [Example 175c, 3-(3-Fluorophenyl)-6-((4-fluorophenyl)(hydroxy)(1-methyl-1H-imidazol-5-yl)methyl)-8-methylquinoline-2,4-dicarbonitrile]
270	93	690 nM	1600				Cn1cncc1C(O)(c1ccc(Cl)cc1)c1ccc2nc(Cl)c(-c3ccccc3Cl)c(Cl)c2c1 (single isomer, unassigned) [Example 153b, (4-Chlorophenyl)(2,4-dichloro-3-(2-chlorophenyl)quinolin-6-yl)(1-methyl-1H-imidazol-5-yl)methanol]
15		8.6 nM		63	106		COCCN(C)c1nc2ccc(C(O)(c3ccncc3)c3cncn3C)cc2c(Cl)c1-c1ccccc1 (stereo not drawn) [Example 63, {4-Chloro-2-[(2-methoxyethyl)(methyl)amino]-3-phenylquinolin-6-yl}(1-methyl-1H-imidazol-5-yl)pyridin-4-ylmethanol•TFA]
190	73	360 nM	870				COc1nc2c(C)cc(C(O)(c3ccc(C(F)(F)F)nc3)c3cncn3C)cc2c(Cl)c1-c1ccc(OC(F)(F)F)cc1 (single isomer, unassigned) [Example 183c, (4-Chloro-2-methoxy-8-methyl-3-(4-(trifluoromethoxy)phenyl)quinolin-6-yl)(1-methyl-1H-imidazol-5-yl)(6-(trifluoromethyl)pyridin-3-yl)methanol]
